The results in this text go back to US7994209B2, “3-phenoxymethylpyrrolidine compounds” (Theravance, Inc., priority 2009, dated 2011).

The target in assay [1] is T1, hSERT (Homo sapiens, UniProt P31645). Briefly: hSERT membrane radioligand binding assay (3H-citalopram), Assay 1. The following applies: SERT pKi, hSERT HEK-293 membranes, 1.0 nM 3H-citalopram; values given as lower bounds.
In assay [2] the target is T1, hSERT. Briefly: hSERT neurotransmitter uptake assay (3H-5-HT), Assay 2. Format: cell-based. The arrangement: expressed in transfected cells; host or cells: HEK-293. The following applies: serotonin reuptake inhibition, 3H-5-HT uptake, HEK-293 hSERT cells (values without asterisk); read-out: SERT pIC50 (converted).
The target in assay [3] is T2, hNET (Homo sapiens, UniProt P23975). In words: hNET membrane radioligand binding assay (3H-nisoxetine), Assay 1.
T2 sequence (P23975 whole entry): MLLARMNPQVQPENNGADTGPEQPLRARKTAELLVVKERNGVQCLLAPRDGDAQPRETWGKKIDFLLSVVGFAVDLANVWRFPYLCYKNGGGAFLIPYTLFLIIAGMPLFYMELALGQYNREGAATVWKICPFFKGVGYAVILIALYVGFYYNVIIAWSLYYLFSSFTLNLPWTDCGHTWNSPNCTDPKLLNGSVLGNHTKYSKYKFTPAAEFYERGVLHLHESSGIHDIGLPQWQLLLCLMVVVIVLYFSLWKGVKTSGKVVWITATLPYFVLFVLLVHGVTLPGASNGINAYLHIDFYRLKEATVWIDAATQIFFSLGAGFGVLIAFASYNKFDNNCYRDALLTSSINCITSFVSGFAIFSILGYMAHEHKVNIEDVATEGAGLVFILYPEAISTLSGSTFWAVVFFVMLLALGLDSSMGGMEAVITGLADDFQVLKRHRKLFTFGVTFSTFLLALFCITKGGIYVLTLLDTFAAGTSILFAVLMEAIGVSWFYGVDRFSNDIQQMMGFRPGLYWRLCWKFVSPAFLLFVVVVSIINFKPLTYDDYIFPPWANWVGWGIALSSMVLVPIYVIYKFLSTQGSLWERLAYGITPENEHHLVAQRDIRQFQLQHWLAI
Description: Membrane radioligand binding assays were used to measure inhibition of labeled ligand (^3H-citalopram or ^3H-nisoxetine or ^3H-WIN35428) binding to membranes prepared from cells expressing the respective human recombinant transporter (hSERT or hNET or hDAT) in order to determine the pKi values of test compounds at the transporters.
Recombinant human embryonic kidney (HEK-293) derived cell lines stably transfected with hSERT or hNET, respectively, were grown in DMEM medium supplemented with 10% dialyzed FBS (for hSERT) or FBS (for hNET), 100 μg/mL penicillin, 100 μg/mL streptomycin, 2 mM L-glutamine and 250 μg/mL of the aminoglycoside antibiotic G418, in a 5% CO2 humidified incubator at 37° C. When cultures reached 80% confluence, the cells were washed thoroughly in PBS (without Ca^2+ and Mg^2+) and lifted with 5 mM EDTA in PBS. Cells were pelleted by centrifugation, resuspended in lysis buffer (10 mM Tris-HCl, pH7.5 containing 1 mM EDTA), homogenized, pelleted by centrifugation, then resuspended in 50 mM Tris-HCl, pH 7.5 and 10% sucrose at 4° C. Protein concentration of the membrane suspension was determined using a Bio-Rad Bradford Protein Assay kit. Membranes were snap frozen and stored at −80° C.
Binding assays were performed in a 96-well assay plate in a total volume of 200 μl assay buffer (50 mM Tris-HCl, 120 mM NaCl, 5 mM KCl, pH 7.4) with 0.5, 1, and 3 μg membrane protein, for SERT, NET and DAT, respectively.
Stock solutions (10 mM in DMSO) of test compound were prepared and serial dilutions made using Dilution Buffer (50 mM Tris-HCl, 120 mM NaCl, 5 mM KCl, pH 7.4, 0.1% BSA, 400 μM ascorbic acid).
Following a 60 minute incubation at 22° C. (or a period sufficient to reach equilibrium), the membranes were harvested by rapid filtration over a 96-well UniFilter GF/B plate, pretreated with 0.3% polyethyleneimine, and washed 6 times with 300 μl wash buffer (50 mM Tris-HCl, 0.9% NaCl, pH 7.5 at 4° C.). Plates were dried overnight at room temperature, approximately 45 μl of MicroScint™-20 (Perkin Elmer) added and bound radioactivity quantitated via liquid scintillation spectroscopy. Inhibition curves and saturation isotherms were analyzed using GraphPad Prism Software package (GraphPad Software, Inc., San Diego, Calif.). IC50 values were generated from concentration response curves using the Sigmoidal Dose Response (variable slope) algorithm in Prism GraphPad.
The target of assay [4] is T2, hNET. Briefly: hNET neurotransmitter uptake assay (3H-NE), Assay 2. The arrangement: expressed in transfected cells; host or cells: HEK-293. The following applies: norepinephrine reuptake inhibition, 3H-NE uptake, HEK-293 hNET cells (values without asterisk); read-out: NET pIC50 (converted). Type of assay: cell-based.

T1 sequence (P31645 whole entry): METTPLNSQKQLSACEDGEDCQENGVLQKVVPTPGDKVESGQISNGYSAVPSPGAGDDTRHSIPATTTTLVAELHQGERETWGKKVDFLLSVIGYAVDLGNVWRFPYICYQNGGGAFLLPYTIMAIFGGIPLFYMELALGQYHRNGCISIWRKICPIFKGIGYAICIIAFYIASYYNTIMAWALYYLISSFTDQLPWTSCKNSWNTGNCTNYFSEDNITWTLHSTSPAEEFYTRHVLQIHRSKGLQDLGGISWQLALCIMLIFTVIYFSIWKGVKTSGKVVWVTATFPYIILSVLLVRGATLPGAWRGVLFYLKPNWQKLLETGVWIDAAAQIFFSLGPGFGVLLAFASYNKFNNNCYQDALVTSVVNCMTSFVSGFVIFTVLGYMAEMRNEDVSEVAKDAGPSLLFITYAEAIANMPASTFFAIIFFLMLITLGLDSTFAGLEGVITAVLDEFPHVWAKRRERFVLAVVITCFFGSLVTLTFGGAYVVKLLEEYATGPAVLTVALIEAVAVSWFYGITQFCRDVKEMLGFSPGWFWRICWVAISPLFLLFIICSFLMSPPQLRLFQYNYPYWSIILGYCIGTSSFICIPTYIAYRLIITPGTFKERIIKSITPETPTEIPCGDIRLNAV

By Ki is commonly meant the dissociation constant of the complex between target and ligand, obtained from inhibition or displacement. A high value points to lower affinity. As for `COc1ccccc1O[C@@H](CC(C)C)[C@H]1CCNC1` [Example 10-4, (S)-3-[(S)-1-(2-Methoxyphenoxy)-3-methylbutyl]pyrrolidine], the Ki on hSERT [1] and at hNET [3] was at most 10 nM throughout. The IC50 on hSERT [2] is at most 100 nM; on hNET [4] it was at most 10 nM.
Consider `CC(C)[C@@H](Oc1ccc(Cl)cc1)[C@@H]1CCNC1` [Example 6-75, (R)-3-[(R)-1-(4-Chlorophenoxy)-2-methylpropyl]pyrrolidine], for which the Ki at hSERT [1] was at most 10 nM; on hNET [3], at most 100 nM. For the same molecule, the IC50 at hSERT [2] was at most 10 nM; at hNET [4], at most 100 nM.
With `CC[C@H](Oc1c(F)ccc(OC)c1Cl)[C@H]1CCNC1` [Example 2-44, (S)-3-[(S)-1-(2-Chloro-6-fluoro-3-methoxyphenoxy)propyl]pyrrolidine], the Ki at hSERT [1] and on hNET [3] was at most 10 nM each time. For the same molecule, the IC50 on hSERT [2] and on hNET [4] was at most 10 nM in each case.
Take `CC(C)[C@H](Oc1cccc2ccccc12)[C@H]1CCNC1` [Example 14-5, (S)-3-[(S)-2-Methyl-1-(naphthalen-1-yloxy)propyl]pyrrolidine]: the Ki at hSERT [1] and on hNET [3] was at most 10 nM in each case. Moreover, the IC50 on hSERT [2] and on hNET [4] was at most 10 nM throughout.
Regarding `CC(C)CC(Oc1ccc(F)cc1)C1CCNC1` (centres unmarked) [Example 10-9, 3-[1-(4-Fluorophenoxy)-3-methylbutyl]pyrrolidine], the Ki at hSERT [1] and on hNET [3] was at most 10 nM each time. In addition, the IC50 was at most 100 nM on hSERT [2] and at most 10 nM on hNET [4].
Take `CC[C@H](Oc1ccc(F)c(OC)c1F)[C@H]1CCNC1` [Example 2-57, (S)-3-[(S)-1-(2,4-Difluoro-3-methoxyphenoxy)propyl]pyrrolidine]: the values for the Ki on hSERT [1] and on hNET [3] were at most 10 nM and at most 100 nM, respectively. Moreover, the IC50 on hSERT [2] and at hNET [4] was at most 100 nM throughout.
For the molecule `CCC[C@H](Oc1c(Cl)ccc(Cl)c1Cl)[C@H]1CCNC1` [Example 4-27, (S)-3-[(S)-1-(2,3,6-Trichlorophenoxy)butyl]pyrrolidine], the Ki at hSERT [1] and at hNET [3] was at most 10 nM throughout. Moreover, the IC50 at hSERT [2] and on hNET [4] was at most 10 nM throughout.
`CC(C)CC(Oc1c(F)ccc(Cl)c1Cl)C1CCNC1` (centres unmarked) [Example 10-64, 3-[1(2,3-Dichloro-6-fluorophenoxy)-3-methylbutyl]pyrrolidine]: the Ki on hSERT [1] and at hNET [3] was at most 10 nM each time. Also, the IC50 at hSERT [2] and on hNET [4] was at most 10 nM each time.
Turning to `CC(C)CC(Oc1cccc(C(F)(F)F)c1)C1CCNC1` (centres unmarked) [Example 10-7, 3-[3-Methyl-1-(3-trifluoromethylphenoxy)butyl]pyrrolidine], the values for the Ki at hSERT [1] and on hNET [3] were at most 10 nM and at most 100 nM, respectively. Also, the IC50 on hSERT [2] and at hNET [4] was at most 100 nM each time.
Consider `CC(C)C[C@H](Oc1c(Cl)cccc1Cl)[C@H]1CCNC1` [Example 10-54, (S)-3-[(S)-1-(2,6-Dichlorophenoxy)-3-methylbutyl]pyrrolidine], for which the Ki at hSERT [1] and on hNET [3] was at most 10 nM each time. The IC50 on hSERT [2] and at hNET [4] was at most 10 nM in each case.
On to `CC(C)[C@H](Oc1ccc(Cl)cc1)[C@H]1CCNC1` [Example 5, (S)-3-[(S)-1-(4-Chlorophenoxy)-2-methylpropyl]pyrrolidine], for which the Ki at hSERT [1] and on hNET [3] was at most 10 nM in each case. Further, the IC50 at hSERT [2] and on hNET [4] was at most 10 nM each time.
`CCC[C@@H](Oc1cc(Cl)cc(Cl)c1)[C@H]1CCNC1` [Example 4-7, (S)-3-[(R)-1-(3,5-Dichlorophenoxy)butyl]pyrrolidine]: the Ki on hSERT [1] and at hNET [3] was at most 10 nM in each case. Further, the IC50 at hSERT [2] and at hNET [4] was at most 10 nM each time.
For `CC(C)C[C@H](Oc1cccc(C(F)(F)F)c1Cl)[C@H]1CCNC1` [Example 10-30, (S)-3-[(S)-1-(2-Chloro-3-trifluoromethylphenoxy)-3-methylbutyl]pyrrolidine], the Ki on hSERT [1] and on hNET [3] was at most 10 nM each time. For the same molecule, the IC50 at hSERT [2] and on hNET [4] was at most 10 nM each time.
Regarding `CC[C@H](Oc1ccccc1Cl)[C@H]1CCNC1` [Example 2-23, (S)-3-[(S)-1-(2-Chlorophenoxy)propyl]pyrrolidine], the Ki at hSERT [1] and at hNET [3] was at most 10 nM in each case. Besides, the IC50 on hSERT [2] is at most 100 nM; at hNET [4], at most 10 nM.
Turning to `CC(C)C[C@H](Oc1c(Cl)ccc(Cl)c1F)[C@H]1CCNC1` [Example 10-69, (S)-3-[(S)-1-(3,6-Dichloro-2-fluorophenoxy)-3-methylbutyl]pyrrolidine], the Ki at hSERT [1] and at hNET [3] was at most 10 nM throughout. Moreover, the IC50 at hSERT [2] and at hNET [4] was at most 10 nM in each case.
Turning to `Clc1cccc(O[C@H](C2CC2)[C@H]2CCNC2)c1Cl` [Example 16-7, (S)-3-[(R)cyclopropyl-(2,3-dichlorophenoxy)methyl]pyrrolidine], the Ki on hSERT [1] and on hNET [3] was at most 10 nM in each case. In addition, the IC50 on hSERT [2] and at hNET [4] was at most 10 nM each time.
As to `Fc1cc(Cl)cc(Cl)c1O[C@H](C1CC1)[C@H]1CCNC1` [Example 16-76, (S)-3-[(R)cyclopropyl-(2,4-dichloro-6-fluorophenoxy)methyl]pyrrolidine], the Ki at hSERT [1] and at hNET [3] was at most 10 nM each time. In addition, the IC50 at hSERT [2] and at hNET [4] was at most 10 nM in each case.
`CCC[C@H](Oc1cc(Cl)cc(Cl)c1)[C@H]1CCNC1` [Example 4-6, (S)-3-[(S)-1-(3,5-Dichlorophenoxy)butyl]pyrrolidine]: the Ki at hSERT [1] and on hNET [3] was at most 10 nM each time. For the same molecule, the IC50 at hSERT [2] and at hNET [4] was at most 10 nM throughout.
With `CC[C@H](Oc1ccc(Cl)cc1)[C@H]1CCNC1` [Example 2-2, (S)-3-[(S)-1-(4-Chlorophenoxy)propyl]pyrrolidine], the Ki at hSERT [1] and on hNET [3] was at most 10 nM in each case. The IC50 on hSERT [2] and at hNET [4] was at most 10 nM each time.
`CC[C@H](Oc1ccc(Cl)c(F)c1)[C@H]1CCNC1` [Example 2-5, (S)-3-[(S)-1-(4-Chloro-3-fluorophenoxy)propyl]pyrrolidine]: the Ki at hSERT [1] and at hNET [3] was at most 10 nM throughout. The IC50 at hSERT [2] and on hNET [4] was at most 10 nM each time.
On to `CCCC[C@@H](Oc1ccc(Cl)cc1)[C@H]1CCNC1` [Example 8-4, (S)-3-[(R)-1-(4-Chlorophenoxy)pentyl]pyrrolidine], for which the Ki at hSERT [1] and at hNET [3] was at most 10 nM throughout. For the same molecule, the IC50 on hSERT [2] and at hNET [4] was at most 10 nM each time.
As to `CC(C)C[C@H](Oc1cc(F)cc(Cl)c1)[C@H]1CCNC1` [Example 10-81, (S)-3-[(S)-1-(3-Chloro-5-fluorophenoxy)-3-methylbutyl]pyrrolidine], the Ki at hSERT [1] and at hNET [3] was at most 10 nM throughout. Also, the IC50 on hSERT [2] and on hNET [4] was at most 10 nM each time.
In the case of `CC[C@H](Oc1ccc(Cl)cc1C)[C@H]1CCNC1` [Example 2-58, (S)-3-[(S)-1-(4-Chloro-2-methylphenoxy)propyl]pyrrolidine], the Ki on hSERT [1] and on hNET [3] was at most 10 nM each time. Also, the IC50 on hSERT [2] and at hNET [4] was at most 10 nM in each case.
Consider `CC(C)C[C@@H](Oc1cc(Cl)cc(Cl)c1)[C@H]1CCNC1` [Example 10-79, (S)-3-[(R)-1-(3,5-Dichlorophenoxy)-3-methylbutyl]pyrrolidine], for which the Ki at hSERT [1] and at hNET [3] was at most 10 nM in each case. Moreover, the IC50 on hSERT [2] and at hNET [4] was at most 10 nM throughout.
On to `CCCC[C@@H](Oc1cc(F)c(F)cc1F)[C@H]1CCNC1` [Example 7, (S)-3-[(R)-1-(2,4,5-Trifluorophenoxy)pentyl]pyrrolidine], for which the Ki at hSERT [1] and at hNET [3] was at most 10 nM throughout. The IC50 was at most 100 nM on hSERT [2] and at most 10 nM at hNET [4].
In the case of `CCc1cc(F)ccc1O[C@H](C1CC1)[C@H]1CCNC1` [Example 16-33, (S)-3-[(R)cyclopropyl-(2-ethyl-4-fluorophenoxy)-methyl]pyrrolidine], the Ki at hSERT [1] is at most 100 nM; on hNET [3] it was at most 10 nM. The figures for the IC50 on hSERT [2] and on hNET [4] were at most 100 nM and at most 10 nM, respectively.
For the molecule `COc1c(O[C@@H](C2CC2)[C@H]2CCNC2)ccc(Cl)c1Cl` [Example 16-55, (S)-3-[(S)cyclopropyl-(3,4-dichloro-2-methoxyphenoxy)methyl]pyrrolidine], the Ki at hSERT [1] and at hNET [3] was at most 10 nM each time. For the same molecule, the IC50 at hSERT [2] and on hNET [4] was at most 10 nM throughout.
Consider `CC(C)CC(Oc1c(Cl)c(F)cc(F)c1Cl)C1CCNC1` (centres unmarked) [Example 10-84, 3-[1-(2,6-Dichloro-3,5-difluorophenoxy)-3-methylbutyl]pyrrolidine], for which the Ki on hSERT [1] and at hNET [3] was at most 10 nM in each case. The IC50 at hSERT [2] and on hNET [4] was at most 10 nM in each case.
With `CC(C)CC(Oc1c(Cl)cccc1Cl)C1CCNC1` (centres unmarked) [Example 10-53, 3-[1-(2,6-Dichlorophenoxy)-3-methylbutyl]pyrrolidine], the Ki on hSERT [1] and at hNET [3] was at most 10 nM in each case. Also, the IC50 on hSERT [2] and at hNET [4] was at most 10 nM throughout.
